We go through 30 molecules from patent US20090111778A1, “2-Keto-Oxazoles as Modulators of Fatty Acid Amide Hydrolase” (priority 2005, published 2009).

Experiment [1] concerns the target T1, human FAAH (Homo sapiens, UniProt O00519).
T1 construct: expressed in transfected cells
T1 sequence (O00519 1-579): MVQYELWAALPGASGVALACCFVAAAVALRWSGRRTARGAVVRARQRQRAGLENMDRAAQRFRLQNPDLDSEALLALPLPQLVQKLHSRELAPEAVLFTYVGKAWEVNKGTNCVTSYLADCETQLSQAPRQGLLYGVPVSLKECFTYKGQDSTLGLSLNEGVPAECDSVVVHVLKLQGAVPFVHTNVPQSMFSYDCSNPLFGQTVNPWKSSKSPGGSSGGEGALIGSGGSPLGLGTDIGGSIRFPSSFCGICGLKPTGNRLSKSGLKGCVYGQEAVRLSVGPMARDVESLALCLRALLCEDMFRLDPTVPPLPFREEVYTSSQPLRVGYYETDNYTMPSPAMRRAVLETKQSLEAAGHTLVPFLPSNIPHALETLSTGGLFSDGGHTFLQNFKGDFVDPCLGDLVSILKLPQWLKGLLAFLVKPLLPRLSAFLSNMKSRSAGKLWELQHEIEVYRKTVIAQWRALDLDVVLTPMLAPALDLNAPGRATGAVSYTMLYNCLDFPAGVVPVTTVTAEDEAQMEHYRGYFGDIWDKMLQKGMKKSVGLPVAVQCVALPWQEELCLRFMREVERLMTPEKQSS
As to the kind of experiment: Assay Method 1: FAAH assay, hydrolysis of 3H-anandamide by homogenate of SK-N-MC cells transfected with human FAAH. In kind it is biochemical. Particulars: human FAAH; T84 or transfected SK-N-MC cell homogenate; 3H-AEA tracer 80 nM; rt 1 h; pH 9; read-out: Assay 1 IC50. The essentials: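 Homogenate of SK-N-MC cells stably expressing human FAAH (G418-selected clones) incubated with compound and 80 nM [1-3H-ethanolamine]anandamide for 1 h at rt. Released 3H-ethanolamine separated from substrate by activated-charcoal filtration, then counted by scintillation.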

For experiment [2], the target named is T2, rat FAAH (Rattus norvegicus, UniProt P97612).
T2 construct: expressed in transfected cells
T2 sequence (P97612 1-579): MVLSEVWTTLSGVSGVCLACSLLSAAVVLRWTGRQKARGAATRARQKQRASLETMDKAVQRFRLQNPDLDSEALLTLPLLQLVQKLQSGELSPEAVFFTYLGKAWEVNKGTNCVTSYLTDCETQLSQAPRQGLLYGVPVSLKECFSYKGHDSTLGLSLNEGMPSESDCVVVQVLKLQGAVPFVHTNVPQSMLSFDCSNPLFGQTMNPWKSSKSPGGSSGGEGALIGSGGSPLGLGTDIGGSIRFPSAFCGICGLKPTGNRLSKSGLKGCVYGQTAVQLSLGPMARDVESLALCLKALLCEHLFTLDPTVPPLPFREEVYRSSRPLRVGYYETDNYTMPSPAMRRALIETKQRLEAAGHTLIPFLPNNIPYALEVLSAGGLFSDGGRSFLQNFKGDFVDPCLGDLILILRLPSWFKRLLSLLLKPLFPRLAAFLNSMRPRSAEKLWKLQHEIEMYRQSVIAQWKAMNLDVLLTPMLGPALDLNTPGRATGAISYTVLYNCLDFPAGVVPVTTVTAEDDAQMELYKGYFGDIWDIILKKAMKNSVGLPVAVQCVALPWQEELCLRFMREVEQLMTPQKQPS
As to the kind of experiment: Assay Method 2: FAAH assay, hydrolysis of 3H-anandamide by homogenate of SK-N-MC cells transfected with rat FAAH. The experiment is classed as biochemical. Particulars: T84 or transfected SK-N-MC cell homogenate, 3H-AEA tracer 80 nM, rt 1 h, pH 9. Put shortly:
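Rat FAAH activity from homogenate of G418-selected, electroporated SK-N-MC clones was measured as release of radiolabelled ethanolamine from 3H-anandamide. After 1 h at rt, charcoal filtration retained substrate, and scintillation counting of the flow-through gave the read-out.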

With `O=C(CCCC1CCN(Cc2cccc(Br)c2)CC1)c1ncco1` [Example 90, 4-[1-(3-Bromo-benzyl)-piperidin-4-yl]-1-oxazol-2-yl-butan-1-one], the IC50 in experiment [1] is 10 nM; in experiment [2], 118 nM.
Taken in the same sequence, the figures for `O=C(CCCC1CCN(S(=O)(=O)Cc2ccccc2)CC1)c1ncco1` [Example 53, 1-Oxazol-2-yl-4-(1-phenylmethanesulfonyl-piperidin-4-yl)-butan-1-one] were 600 nM and 800 nM.
For `CC(C)(C)c1ccc(CN2CCC(CCCC(=O)c3ncco3)CC2)cn1` [Example 139, 4-[1-(6-tert-Butyl-pyridin-3-ylmethyl)-piperidin-4-yl]-1-oxazol-2-yl-butan-1-one] the same measures were 50 nM and 550 nM.
For `O=C(CCCC1CCN(Cc2cccc(-c3ccccc3)c2)CC1)c1ncco1` [Example 72, 4-(1-Biphenyl-3-ylmethyl-piperidin-4-yl)-1-oxazol-2-yl-butan-1-one] the same measures were 0.9 nM and 2 nM.
As for `O=C(CCCC1CCN(Cc2ccccc2Cl)CC1)c1ncco1` [Example 84, 4-[1-(2-Chloro-benzyl)-piperidin-4-yl]-1-oxazol-2-yl-butan-1-one], the values for the IC50 in experiment [1] and in experiment [2] were 260 nM and 563 nM, respectively.
For `O=C(CCCC1CCN(Cc2cccc(Oc3ccccc3)c2)CC1)c1ncco1` [Example 2, 1-Oxazol-2-yl-4-[1-(3-phenoxy-benzyl)-piperidin-4-yl]-butan-1-one] the same measures were 0.4 nM and 4.7 nM.
Taken in the same sequence, the figures for `O=C(CCCC1CCN(S(=O)(=O)c2ccc(F)cc2)CC1)c1ncco1` [Example 55, 4-[1-(4-Fluoro-benzenesulfonyl)-piperidin-4-yl]-1-oxazol-2-yl-butan-1-one] were 905 nM and 95 nM.
Taken in the same sequence, the figures for `O=C(CCCC1CCN(C(=O)OCc2ccccc2)CC1)c1ncco1` [Example 63, 4-(4-Oxazol-2-yl-4-oxo-butyl)-piperidine-1-carboxylic acid benzyl ester] were 3 nM and 2 nM.
With `Cc1ccc(S(=O)(=O)N2CCC(CCCC(=O)c3ncc(C(=O)O)o3)CC2)cc1` [Example 146], the figures for the IC50 in experiment [1] and in experiment [2] were 26 nM and 14 nM, respectively.
For `O=C(CCCC1CCN(Cc2ccccc2Br)CC1)c1ncco1` [Example 85, 4-[1-(2-Bromo-benzyl)-piperidin-4-yl]-1-oxazol-2-yl-butan-1-one] the same measures were 315 nM and 240 nM.
Taken in the same sequence, the figures for `O=C(CCCC1CCN(Cc2ccncc2)CC1)c1ncco1` [Example 6, 1-Oxazol-2-yl-4-(1-pyridin-4-ylmethyl-piperidin-4-yl)-butan-1-one] were 359 nM and 550 nM.
For `O=C(CCCC1CCN(C(=O)C2CCCC2)CC1)c1ncco1` [Example 31, 4-(1-Cyclopentanecarbonyl-piperidin-4-yl)-1-oxazol-2-yl-butan-1-one] the same measures were 106 nM and 288 nM.
For the molecule `CCCOC(=O)N1CCC(CCCC(=O)c2ncco2)CC1` [Example 70, 4-(4-Oxazol-2-yl-4-oxo-butyl)-piperidine-1-carboxylic acid propyl ester], the figures for the IC50 in experiment [1] and in experiment [2] were 7 nM and 19 nM, respectively.
Regarding `O=C(CCCC1CCN(Cc2ccc(C3CCCCC3)cc2)CC1)c1ncco1` [Example 101, 4-[1-(4-Cyclohexyl-benzyl)-piperidin-4-yl]-1-oxazol-2-yl-butan-1-one], the results for the IC50 in experiment [1] and in experiment [2] were 23 nM and 44 nM, respectively.
For `CC(C)(C)COC(=O)N1CCC(CCCC(=O)c2ncco2)CC1` [Example 67, 4-(4-Oxazol-2-yl-4-oxo-butyl)-piperidine-1-carboxylic acid 2,2-dimethyl-propyl ester] the same measures were 50 nM and 118 nM.
Taken in the same sequence, the figures for `CC(C)Oc1ccc(CN2CCC(CCCC(=O)c3ncco3)CC2)cc1` [Example 23, 4-[1-(4-isopropoxy-benzyl)-piperidin-4-yl]-1-oxazol-2-yl-butan-1-one] were 14 nM and 31 nM.
On to `O=C(CCCC1CCN(Cc2cc(F)c(F)c(F)c2)CC1)c1ncco1` [Example 131, 1-Oxazol-2-yl-4-[1-(3,4,5-trifluoro-benzyl)-piperidin-4-yl]-butan-1-one], for which the results for the concentration for half-maximal inhibition (IC50) in experiment [1] and in experiment [2] were 88 nM and 760 nM, respectively.
Taken in the same sequence, the figures for `O=C(CCCC1CCN(S(=O)(=O)c2ccccc2)CC1)c1ncco1` [Example 59, 4-(1-Benzenesulfonyl-piperidin-4-yl)-1-oxazol-2-yl-butan-1-one] were 705 nM and 165 nM.
On to `O=C(CCCC1CCN(Cc2cccnc2)CC1)c1ncco1` [Example 5, 1-Oxazol-2-yl-4-(1-pyridin-3-ylmethyl-piperidin-4-yl)-butan-1-one], for which the IC50 in experiment [1] stood at 1200 nM; in experiment [2] it was 3000 nM.
Taken in the same sequence, the figures for `O=C(CCCC1CCN(S(=O)(=O)c2ccc(Cl)cc2)CC1)c1ncco1` [Example 60, 4-[1-(4-Chloro-benzenesulfonyl)-piperidin-4-yl]-1-oxazol-2-yl-butan-1-one] were 4 nM and 34 nM.
Taken in the same sequence, the figures for `O=C(CCCC1CCN(Cc2ccc(Br)c(Br)c2)CC1)c1ncco1` [Example 11, 4-[1-(3,4-Dibromo-benzyl)-piperidin-4-yl]-1-oxazol-2-yl-butan-1-one] were 36 nM and 95 nM.
Taken in the same sequence, the figures for `CCOC(=O)N1CCC(CCCC(=O)c2ncco2)CC1` [Example 64, 4-(4-Oxazol-2-yl-4-oxo-butyl)-piperidine-1-carboxylic acid ethyl ester] were 6 nM and 14 nM.
For `CC(C)(C)OC(=O)N1CCC(CCCC(=O)c2ncc(-c3ccccn3)o2)CC1` [Example 119, 4-[4-Oxo-4-(5-pyridin-2-yl-oxazol-2-yl)-butyl]-piperidine-1-carboxylic acid tert-butyl ester], the IC50 came to 0.8 nM in experiment [1] and 3 nM in experiment [2].
Taken in the same sequence, the figures for `O=C(CCCC1CCN(S(=O)(=O)CCc2ccccc2)CC1)c1ncco1` [Example 54, 1-Oxazol-2-yl-4-[1-(2-phenyl-ethanesulfonyl)-piperidin-4-yl]-butan-1-one] were 6 nM and 125 nM.
Taken in the same sequence, the figures for `Cc1ccc(CN2CCC(CCCC(=O)c3ncco3)CC2)cc1` [Example 18, 4-[1-(4-Methyl-benzyl)-piperidin-4-yl]-1-oxazol-2-yl-butan-1-one] were 400 nM and 1000 nM.
For `CCCCCCCN1CCC(CCCC(=O)c2ncco2)CC1` [Example 126, 4-(1-Heptyl-piperidin-4-yl)-1-oxazol-2-yl-butan-1-one] the same measures were 23 nM and 810 nM.
As to `COc1ccc2nc(Cl)c(CN3CCC(CCCC(=O)c4ncco4)CC3)cc2c1` [Example 100, 4-[1-(2-Chloro-6-methoxy-quinolin-3-ylmethyl)-piperidin-4-yl]-1-oxazol-2-yl-butan-1-one], the figures for the IC50 in experiment [1] and in experiment [2] were 30 nM and 11 nM, respectively.
Taken in the same sequence, the figures for `O=C(CCCC1CCN(Cc2cncc(Br)c2)CC1)c1ncco1` [Example 78, 4-[1-(5-Bromo-pyridin-3-ylmethyl)-piperidin-4-yl]-1-oxazol-2-yl-butan-1-one] were 98 nM and 500 nM.
For `CCc1ccc(CN2CCC(CCCC(=O)c3ncco3)CC2)cc1` [Example 71, 4-[1-(4-Ethyl-benzyl)-piperidin-4-yl]-1-oxazol-2-yl-butan-1-one] the same measures were 7 nM and 49 nM.
Taken in the same sequence, the figures for `COc1ccc(CN2CCC(CCCC(=O)c3ncco3)CC2)cn1` [Example 74, 4-[1-(6-Methoxy-pyridin-3-ylmethyl)-piperidin-4-yl]-1-oxazol-2-yl-butan-1-one] were 1300 nM and 5000 nM.
